From patent US12048703B2, “Use of small molecule FAK activators to promote mucosal healing” (Regents of the University of Minnesota, priority 2018, dated 2024)
“Also recorded” adds a separate entry of the source. Each block holds one compound with its values, some of them ahead of it.

Legend:
FAK = biological target: T1, FAK (Homo sapiens, UniProt Q05397); test: FAK activation (FAK-Tyr-397 phosphorylation) by western blotting in Caco-2 cells in suspension; format: cell-based; conditions: for basal FAK-Tyr-397 phosphorylation: ambient pressure, varying concentrations; for FAK activation (FAK-Tyr-397 phosphorylation): Caco-2 cells; for FAK phosphorylation: 100 pm-1 nM
T1 construct: endogenous in cells; host or cells: Caco-2
Description: FAK-Y397 western blotting: For studies of FAK activation, cells were maintained at ambient or increased pressure in bacteriologic plastic dishes pacificated with heat-inactivated bovine serum albumin to prevent adhesion and avoid adhesion-associated background FAK activation. Cells were lysed in lysis buffer, resolved by 10% SDS-PAGE, transferred to nitrocellulose and blotted with antibody to Tyr-397-phosphorylated FAK (Rabbit monoclonal antibody, ab81298, Abcam, USA) and anti-rabbit 680 (LI-COR, USA), before quantitation using Kodak Scientific Imaging Systems 1D, V.3.5.4 within the linear range of exposure (Oncotarget 2017). Total FAK (Primary antibody: Anti-FAK, clone 4.47 Merck, Germany and secondary antibody: anti-mouse 800, LI-COR, USA) served as a protein loading control.

Caco-2 monolayers = test: Closure of circular wounds in Caco-2 monolayers on collagen I; format: cell-based, human; conditions: for wound closure rate: 100 μM, Caco-2 on Collagen-I; for monolayer wound closure: Caco-2 on collagen I; for stimulation of wound closure under FAK blockade: with FAK inhibitor PF-573328 (10 uM); for Caco-2 monolayer wound closure: concentration not given
Caco-2 cells = test: Caco-2 proliferation; format: cell-based, human
SHP2 = biological target: T2, SHP2 (Homo sapiens, UniProt Q06124); test: SHP2 dephosphorylation of a synthetic substrate; format: biochemical; conditions: for SHP2 dephosphorylation of a synthetic substrate: 100 nM, vs. positive control reaction
T2 sequence (Q06124 1-593): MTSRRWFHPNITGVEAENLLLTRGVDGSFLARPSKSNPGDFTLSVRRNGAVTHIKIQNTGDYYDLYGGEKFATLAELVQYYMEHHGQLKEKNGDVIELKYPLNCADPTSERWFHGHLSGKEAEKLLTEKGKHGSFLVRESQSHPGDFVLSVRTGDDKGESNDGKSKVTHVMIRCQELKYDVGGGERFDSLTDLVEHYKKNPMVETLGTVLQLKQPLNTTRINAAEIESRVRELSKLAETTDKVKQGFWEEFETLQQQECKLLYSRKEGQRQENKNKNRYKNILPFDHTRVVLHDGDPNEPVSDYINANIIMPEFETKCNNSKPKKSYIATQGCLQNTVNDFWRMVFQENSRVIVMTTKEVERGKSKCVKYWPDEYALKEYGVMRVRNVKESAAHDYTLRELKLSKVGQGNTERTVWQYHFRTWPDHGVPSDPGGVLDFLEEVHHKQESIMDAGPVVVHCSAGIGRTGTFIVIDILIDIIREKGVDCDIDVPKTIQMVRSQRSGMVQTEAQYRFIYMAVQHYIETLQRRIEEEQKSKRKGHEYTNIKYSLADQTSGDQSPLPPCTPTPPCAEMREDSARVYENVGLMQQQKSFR

PTP1B-FAK interaction = biological target: T3, PTP1B-FAK interaction (Homo sapiens, UniProt Q05397); test: PTP1B-FAK interaction by FAK immunoprecipitation and Western for PTP1B; format: cell-based; conditions: 10 nM; co-precipitation; listed as D3
T3 construct: endogenous in cells; host or cells: Caco-2 (inferred)

Pyk2 (also called FAK2) = biological target: T4, Pyk2 (also called FAK2) (Homo sapiens, UniProt Q14289); test: Pyk2 activation (selectivity); format: cell-based; conditions: up to 1000 nm (100× therapeutic threshold); listed as D3
T4 construct: endogenous in cells

Src = biological target: T5, Src (Homo sapiens, UniProt P12931); test: Src activation (selectivity); format: cell-based; conditions: up to 1000 nm (100× therapeutic threshold); listed as D3
T5 construct: endogenous in cells

ileal ulcer = test: Serosal acetic acid ileal ulcer healing in mice; format: in vivo; conditions: vs DMSO vehicle, listed as D3
Method: An in vivo study was conducted utilizing C57BL6 Male/Female>8-week-old mice. During laparotomy under anesthesia, a filter paper soaked with 75% Acetic Acid was applied to ileal serosa for 15 seconds, a technique that produces reproducible mucosal ulcers at day 4 without opening the bowel. Flanigan T L et al., Am J Surg. 2008 November; 196(5): 683-689. doi:10.1016/j.amjsurg.2008.07.016.
At 1 day after ulcerogenesis, an intraperitoneal (IP) administration of Q6H-DMSO (2.4 ul+97.6 ul saline) was performed in a control sample, along with an IP injection of Q6H—Compound 3 (10 ug/ul) (2.4 ul+97.6 ul saline) in a test sample.
At 4 days after ulcerogenesis (day 3 after starting administration), the ulcer area was measured in each. The observed ulcer area and corresponding wound closure rate in vivo further evidences the effect of Compound 3.
(§1) (A) The effects of dosing of compound D3 on murine intestinal ulcer healing was investigated. Brief serosal application of a filter paper disk soaked in dilute acetic acid was used to create well demarcated reproducible mucosal small bowel ulcerations without opening the bowel (47-49). In one study such murine ulcers were created, allowed 24 hours for recovery and ulcer formation, and then compound D3 was administered at 900 ug/kg Q6H for three days before sacrifice. […] Males and females responded similarly.

small bowel ulcer = test: Indomethacin small bowel ulcer healing in mice; format: in vivo; conditions: 4 days after indomethacin 15 mg/kg subQ, listed as D3
Method: (§2) (B) Indomethacin ulcer healing. 15 mg/kg of indomethacin was administered subcutaneously, and treatment started with vehicle of drug 1 day after injury. At 4 days, ulcer area was calculated after sacrifice by morphometric analysis of photographs of the entire small bowel.

[1] = Toxicity assessment in acetic acid ulcer mice (weight, serum chemistry, histology); format: in vivo; conditions: acetic acid ulcer model
Method: as §1

[2] = Body weight in indomethacin ulcer mice; format: in vivo; conditions: indomethacin model, trend not statistically significant
Method: as §2

T1 sequence (Q05397 whole entry): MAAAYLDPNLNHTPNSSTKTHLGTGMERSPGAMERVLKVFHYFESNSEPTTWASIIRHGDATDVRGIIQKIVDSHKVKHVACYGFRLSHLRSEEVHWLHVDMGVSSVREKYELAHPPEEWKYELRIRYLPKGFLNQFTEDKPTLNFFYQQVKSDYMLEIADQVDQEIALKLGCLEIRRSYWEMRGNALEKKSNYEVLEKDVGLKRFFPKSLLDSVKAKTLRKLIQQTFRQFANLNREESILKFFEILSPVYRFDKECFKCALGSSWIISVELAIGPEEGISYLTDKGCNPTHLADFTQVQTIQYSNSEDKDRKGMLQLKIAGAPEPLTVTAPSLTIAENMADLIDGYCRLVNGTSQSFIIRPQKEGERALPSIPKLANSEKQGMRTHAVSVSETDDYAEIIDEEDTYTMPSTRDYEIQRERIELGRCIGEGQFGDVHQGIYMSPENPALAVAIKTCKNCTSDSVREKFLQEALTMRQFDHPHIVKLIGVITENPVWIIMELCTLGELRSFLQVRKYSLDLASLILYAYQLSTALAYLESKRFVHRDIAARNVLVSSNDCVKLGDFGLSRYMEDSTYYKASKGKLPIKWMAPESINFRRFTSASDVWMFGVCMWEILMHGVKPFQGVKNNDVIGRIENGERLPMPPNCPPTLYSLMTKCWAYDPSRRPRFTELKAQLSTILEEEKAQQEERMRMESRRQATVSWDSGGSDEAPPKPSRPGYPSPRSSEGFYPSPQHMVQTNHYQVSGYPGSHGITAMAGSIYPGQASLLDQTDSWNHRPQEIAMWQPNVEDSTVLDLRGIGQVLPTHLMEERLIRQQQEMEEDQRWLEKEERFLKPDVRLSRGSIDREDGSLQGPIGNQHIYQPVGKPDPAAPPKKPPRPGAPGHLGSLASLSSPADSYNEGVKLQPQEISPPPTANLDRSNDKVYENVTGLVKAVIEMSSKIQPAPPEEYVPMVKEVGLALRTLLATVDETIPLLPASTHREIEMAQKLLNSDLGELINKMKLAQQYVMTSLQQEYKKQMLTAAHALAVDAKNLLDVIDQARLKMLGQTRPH
T5 sequence (P12931 whole entry): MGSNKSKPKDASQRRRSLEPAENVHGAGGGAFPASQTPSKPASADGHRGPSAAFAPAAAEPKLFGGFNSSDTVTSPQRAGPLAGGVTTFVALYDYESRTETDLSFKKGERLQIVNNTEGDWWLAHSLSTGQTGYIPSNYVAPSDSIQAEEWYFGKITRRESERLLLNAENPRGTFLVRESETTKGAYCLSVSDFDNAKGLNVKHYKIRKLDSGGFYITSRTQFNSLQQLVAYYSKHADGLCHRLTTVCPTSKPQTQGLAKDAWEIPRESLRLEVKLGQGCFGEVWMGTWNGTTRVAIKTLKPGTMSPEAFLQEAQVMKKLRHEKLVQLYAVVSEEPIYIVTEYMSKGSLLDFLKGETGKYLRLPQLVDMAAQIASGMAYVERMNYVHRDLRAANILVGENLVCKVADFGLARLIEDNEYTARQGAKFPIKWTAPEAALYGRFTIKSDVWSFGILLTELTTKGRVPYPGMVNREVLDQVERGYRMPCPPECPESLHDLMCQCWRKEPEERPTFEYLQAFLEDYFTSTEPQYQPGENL
T4 sequence (Q14289 whole entry): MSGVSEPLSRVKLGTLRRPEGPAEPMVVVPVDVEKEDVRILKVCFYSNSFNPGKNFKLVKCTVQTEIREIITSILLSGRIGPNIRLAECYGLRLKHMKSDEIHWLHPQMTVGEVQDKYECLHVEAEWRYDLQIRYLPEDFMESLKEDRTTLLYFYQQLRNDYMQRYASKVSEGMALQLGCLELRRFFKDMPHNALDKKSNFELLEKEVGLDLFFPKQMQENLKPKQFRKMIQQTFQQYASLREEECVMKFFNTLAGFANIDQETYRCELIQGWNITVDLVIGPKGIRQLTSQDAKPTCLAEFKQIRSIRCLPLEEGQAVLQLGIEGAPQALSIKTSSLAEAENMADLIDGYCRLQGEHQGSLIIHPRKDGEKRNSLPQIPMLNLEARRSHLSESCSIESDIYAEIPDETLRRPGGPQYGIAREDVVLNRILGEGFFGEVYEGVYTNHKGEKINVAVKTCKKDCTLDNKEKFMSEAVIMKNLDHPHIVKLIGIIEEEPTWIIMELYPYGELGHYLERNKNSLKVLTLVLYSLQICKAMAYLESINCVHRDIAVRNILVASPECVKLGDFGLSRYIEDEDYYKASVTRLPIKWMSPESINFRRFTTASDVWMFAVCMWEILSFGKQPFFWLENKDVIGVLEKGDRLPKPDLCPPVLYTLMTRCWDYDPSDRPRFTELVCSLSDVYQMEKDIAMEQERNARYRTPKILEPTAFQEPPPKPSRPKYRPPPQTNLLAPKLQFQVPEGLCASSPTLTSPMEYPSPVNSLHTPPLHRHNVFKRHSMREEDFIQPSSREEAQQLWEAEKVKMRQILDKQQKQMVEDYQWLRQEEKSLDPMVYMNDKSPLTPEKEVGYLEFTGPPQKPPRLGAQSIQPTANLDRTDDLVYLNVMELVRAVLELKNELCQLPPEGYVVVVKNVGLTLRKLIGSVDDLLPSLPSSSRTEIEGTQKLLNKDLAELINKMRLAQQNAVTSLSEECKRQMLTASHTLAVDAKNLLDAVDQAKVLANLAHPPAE
T3 sequence (Q05397 whole entry): as the sequence (Q05397 whole entry) above

Compound: Cc1ccccc1[C@@H]1CCCN1C(=O)C[C@H](NC(N)=O)c1cccs1 [Compound 2, [(1S)-3-[(2S)-2-(2-methylphenyl)pyrrolidin-1-yl]-3-oxo-1-thiophen-2-ylpropyl]urea]
FAK activation (FAK; 1 nM): demonstrated FAK activation | FAK activation (FAK; 10 and 100 nM): modest FAK activation | basal FAK-Tyr-397 phosphorylation (FAK): increase basal FAK-Tyr-397 phosphorylation | FAK activation (FAK; concentration not given): activated FAK | wound closure rate (Caco-2 monolayers): Increased wound closure rates

Compound: COc1ccc(C2CCCN2C(=O)Nc2cc(C(F)(F)F)ccc2N2CCOCC2)cc1 (stereo not drawn) [Compound 3, 2-(4-methoxyphenyl)-N-[2-(morpholin-4-yl)-5-(trifluoromethyl)phenyl]pyrrolidine-1-carboxamide]
FAK activation (FAK; 10 pM to 1 nM): activation | FAK activation (FAK; 1 nM): demonstrated FAK activation | FAK activation (FAK-Tyr-397 phosphorylation) (FAK; 10 nM, listed as D3): activating FAK; also recorded: activate FAK | FAK-Y-397 phosphorylation under PTP PEST inhibition (FAK; 10 nM, PTP LYP inhibitor 540217 (50 uM), listed as D3): does not prevent D3 induction of FAK-Y-397; also recorded: stimulates Caco-2 FAK-Y-397 phosphorylation independently of PTP PEST inhibition | FAK activation in presence of genistein (FAK; 100 ug/ml genistein, human Caco-2 cells, listed as D3): does not block D3 induction of FAK phosphorylation; also recorded: does not block D3 activation of FAK | FAK activation, dose dependence (FAK; 10-1000 nM): dose dependently activates FAK | specificity vs. Pyk2 (FAK; FAK activation at 10 nM vs. Pyk2): at least 100 × | basal FAK-Tyr-397 phosphorylation (FAK): increase basal FAK-Tyr-397 phosphorylation | FAK activation (FAK; concentration not given): especially potent | FAK autophosphorylation in presence of FAK inhibitor PF573228 (FAK; with PF573228): does not prevent Compound 3 from increasing FAK autophosphorylation | wound closure when proliferation is blocked (Caco-2 monolayers; 10 nM, 4 mM OH-urea, listed as D3): stimulates wound closure even when proliferation is blocked; also recorded: accelerates closure of circular wounds | monolayer wound closure (Caco-2 monolayers; 10 nM): Increased wound closure rates | monolayer wound closure (Caco-2 monolayers; 10 nM, listed as D3): accelerate the closure of circular wounds | wound closure rate (Caco-2 monolayers): Increased wound closure rates | stimulation of wound closure under FAK blockade (Caco-2 monolayers): prevents the stimulation of wound healing by Compound 3 | stimulation of wound closure under FAK blockade (Caco-2 monolayers; listed as D3): prevented D3 stimulation of monolayer wound closure; also recorded: prevents D3 stimulation of wound closure | Caco-2 cell proliferation (Caco-2 cells): Neither Compound 1 nor Compound 3 stimulated Caco-2 cell proliferation | Caco-2 proliferation (cell number) (Caco-2 cells; 48 hours, listed as D3): cell number did not increase; also recorded: does not stimulate Caco-2 proliferation | SHP2 dephosphorylation of a synthetic substrate (SHP2): neither D3 nor D4 (100 nM) blocks SHP2 dephosphorylation | SHP2 activity in vitro (SHP2; concentration not given, listed as D3): does not activate SHP2; also recorded: does not alter SHP2 activity | PTP1B-FAK interaction (PTP1B-FAK interaction): does not change FAK-PTPB association; also recorded: does not inhibit PTP1B-FAK interaction | Pyk2 activation (Pyk2 (also called FAK2)): does not activate Pyk2 or Src; also recorded: does not affect the kinase Pyk2 | Src activation (Src): does not activate Pyk2 or Src; also recorded: does not affect | % wound closure between day 1 and day 4 (ileal ulcer; 900 ug/kg IP every 6 hours): markedly higher; also recorded: stimulates ulcer healing | ileal ulcer area (ileal ulcer; day 4, 900 ug/kg IP every 6 hours for 3 days): substantially smaller ulcers; also recorded: reduces ileal ulcer area; also recorded: ulcers appear smaller | total small bowel ulcer area (small bowel ulcer): substantial and statistically significant reduction in ulcer area; also recorded: markedly decreases total small bowel ulcer area | ALT ([1]; remained within the normal range): slight elevation of ALT | Histological evaluation of kidneys or livers ([1]; vs vehicle): no differences | Serum creatinine ([1]; vs vehicle): not different | postoperative body weight ([1]; vs vehicle): did not display further weight loss | body weight [2]: lost less weight

Compound: COc1ccc(C2CCCN2C(=O)CC(NC(N)=O)c2ccccc2Cl)cc1OC (stereo not drawn) [Compound 4, 1-(2-chlorophenyl)-3-[2-(3,4-dimethoxyphenyl)pyrrolidin-1-yl]-3-oxopropylurea]
FAK activation (FAK; 1 nM): no change was observed | FAK activation (FAK-Tyr-397 phosphorylation) (FAK; 10 nM): can activate FAK | FAK activation (FAK-Tyr-397 phosphorylation) (FAK; 10 nM, listed as D4): activate FAK | basal FAK-Tyr-397 phosphorylation (FAK): increase basal FAK-Tyr-397 phosphorylation | FAK activation (FAK; concentration not given): especially potent | monolayer wound closure (Caco-2 monolayers; 10 nM): Increased wound closure rates; also recorded: can promote Caco-2 monolayer wound healing | monolayer wound closure (Caco-2 monolayers; 10 nM, listed as D4): accelerate the closure of circular wounds | SHP2 dephosphorylation of a synthetic substrate (SHP2): neither D3 nor D4 (100 nM) blocks SHP2 dephosphorylation

Compound: O=C(Nc1cc(C(F)(F)F)ccc1N1CCOCC1)N1CCCC1c1ccncc1 (stereo not drawn) [Compound M3]
FAK activation (FAK-Tyr-397 phosphorylation) (FAK; 10 nM): proved active; also recorded: activate FAK Y-397 phosphorylation | FAK phosphorylation (FAK): activate FAK phosphorylation | Caco-2 monolayer wound closure (Caco-2 monolayers): promote Caco-2 monolayer wound closure

Compound: O=C(Nc1cc(C(F)(F)F)ccc1N1CCOCC1)N1CCCC1c1ccccc1 (stereo not drawn) [Compound M12]
FAK activation (FAK-Tyr-397 phosphorylation) (FAK; 10 nM): proved active; also recorded: activate FAK Y-397 phosphorylation | monolayer wound closure (Caco-2 monolayers; 10 nM): stimulates monolayer wound closure

More lines, main results first:

FAK phosphorylation (FAK): activate FAK phosphorylation | Caco-2 monolayer wound closure (Caco-2 monolayers): promote Caco-2 monolayer wound closure
Compound: COc1ccc(C(CNC(=O)Nc2cc(C(F)(F)F)ccc2N2CCOCC2)N(C)C)cc1 (stereo not drawn) [Compound M6]
FAK activation (FAK-Tyr-397 phosphorylation) (FAK; 10 nM): proved active; also recorded: activate FAK Y-397 phosphorylation

FAK phosphorylation (FAK): activate FAK phosphorylation | Caco-2 monolayer wound closure (Caco-2 monolayers): promote Caco-2 monolayer wound closure
Compound: O=C(Nc1cc(C(F)(F)F)ccc1N1CCOCC1)N1CCCC1C1CCCCC1 (stereo not drawn) [Compound M11]
FAK activation (FAK-Tyr-397 phosphorylation) (FAK; 10 nM): proved active; also recorded: activate FAK Y-397 phosphorylation

basal FAK autophosphorylation (FAK): inhibits basal FAK autophosphorylation
Compound: CS(=O)(=O)c1cccc(CNc2nc(Nc3ccc4c(c3)CCC(=O)N4)ncc2C(F)(F)F)c1 [PF-573228, reference compound]
basal rates of wound healing in vitro (Caco-2 monolayers): reduces basal rates of wound healing in vitro
